From US8664257B2, “Oxygen-substituted 3-heteroaroylamino-propionic acid derivatives and their use as pharmaceuticals” (Sanofi, priority 2010, dated 2014) come the findings set out here.

The target in this assay is T1, Recombinant human cathepsin A (Homo sapiens, UniProt P10619).
T1 construct: Recombinant human cathepsin A (residues 29-480, with a C-terminal 10-His tag); 10-His (C); purchased R&D Systems 1049-SE
T1 sequence (P10619 29-312 limits assumed): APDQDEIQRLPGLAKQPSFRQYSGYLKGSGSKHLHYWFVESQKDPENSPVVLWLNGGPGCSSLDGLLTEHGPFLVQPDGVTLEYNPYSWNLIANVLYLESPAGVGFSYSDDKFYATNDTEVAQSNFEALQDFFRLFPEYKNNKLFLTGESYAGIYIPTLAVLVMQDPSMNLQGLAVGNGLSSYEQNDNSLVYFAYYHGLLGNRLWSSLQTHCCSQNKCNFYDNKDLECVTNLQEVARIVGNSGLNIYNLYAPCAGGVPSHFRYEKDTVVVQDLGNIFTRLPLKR
T1 sequence (P10619 327-480 limits assumed): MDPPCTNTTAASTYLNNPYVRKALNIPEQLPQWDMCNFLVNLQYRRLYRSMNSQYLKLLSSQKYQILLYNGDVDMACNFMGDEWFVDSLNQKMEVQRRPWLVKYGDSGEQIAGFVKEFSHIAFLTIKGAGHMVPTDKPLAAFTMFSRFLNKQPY
The experiment in a line: Cathepsin A inhibitory activity. It is filed as biochemical. The following applies: read-out: Activity (2): Cathepsin A inhibitory activity, IC50 class. An outline of the steps:
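Human cathepsin A (res. 29-480, C-His10) pre-activated with cathepsin L (MES pH 6.0, DTT, 15 min, 37 °C; quenched with 10 μM E-64). Enzyme (833 ng/ml) preincubated 15 min RT with compound in MES pH 5.5/DTT, then 2 μM Bodipy FL-bradykinin for 15 min RT. Capillary electrophoresis product/substrate peak areas; IC50 from % inhibition.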

As for `O=C(O)C[C@H](NC(=O)c1cc(O)n(-c2cccc(F)c2)n1)c1ccccc1C(F)(F)F` [Example 329], the IC50 was 0.1 to 1 µM.

For `O=C(O)CC(NC(=O)c1cc(O)n(-c2cccc(F)c2)n1)c1ccc(Oc2ccccc2)cc1` (stereo not shown) [Example 330], the half-inhibitory concentration (IC50) was 0.1 to 1 µM.

For the compound `O=C(O)C[C@H](NC(=O)c1cc(O)n(-c2cccc(F)c2)n1)c1ccc(Cl)cc1` [Example 331], the half-inhibitory concentration (IC50) is 0.1 to 1 µM.

Regarding `O=C(O)C[C@H](NC(=O)c1cc(O)n(-c2cccc(F)c2)n1)c1ccc(Cl)cc1Cl` [Example 332], the IC50 is 0.1 to 1 µM.

With `O=C(O)CC(NC(=O)c1cc(O)n(-c2cccc(F)c2)n1)c1ccc(-c2ccc(F)cc2)cc1` (stereo not shown) [Example 333], the half-inhibitory concentration (IC50) is 1 to 30 µM.

Take `O=C(O)C[C@H](NC(=O)c1cc(O)n(-c2cccc(F)c2)n1)c1cccnc1` [Example 334]: the IC50 was 0.1 to 1 µM.

For the compound `COc1ccc([C@H](CC(=O)O)NC(=O)c2cc(O)n(-c3cccc(F)c3)n2)cn1` [Example 335], the IC50 is 0.1 to 1 µM.

`O=C(O)CC(NC(=O)c1cc(O)n(-c2ccc(F)cc2)n1)c1cccc2c1OCO2` (stereo not shown) [Example 336]: the half-inhibitory concentration (IC50) is 0.1 to 1 µM.

As to `COc1ccc(C(CC(=O)O)NC(=O)c2cc(O)n(-c3ccc(F)cc3)n2)c(C)c1` (stereo not shown) [Example 337], the IC50 was 0.1 to 1 µM.

With `O=C(O)CC(NC(=O)c1cc(O)n(-c2ccc(F)cc2)n1)c1cccc(Cl)c1` (stereo not shown) [Example 338], the IC50 is 0.1 to 1 µM.

As to `O=C(O)C[C@H](NC(=O)c1cc(O)n(-c2ccc(F)cc2)n1)c1ccccc1Br` [Example 339], the IC50 was in the range of 0.1 to 1 µM.

Regarding `N#Cc1cccc([C@H](CC(=O)O)NC(=O)c2cc(O)n(-c3ccc(F)cc3)n2)c1` [Example 340], the concentration for half-maximal inhibition (IC50) fell in the range of 1 to 30 µM.

For the compound `N#Cc1ccc([C@H](CC(=O)O)NC(=O)c2cc(O)n(-c3ccc(F)cc3)n2)cc1` [Example 341], the half-inhibitory concentration (IC50) is 0.1 to 1 µM.

Turning to `COc1ccccc1[C@H](CC(=O)O)NC(=O)c1cc(O)n(-c2ccc(F)cc2)n1` [Example 342], the 50% inhibitory concentration (IC50) was 0.1 to 1 µM.

With `O=C(O)CC(NC(=O)c1cc(O)n(-c2ccc(F)cc2)n1)c1ccccc1F` (stereo not shown) [Example 343], the half-maximal inhibitory concentration (IC50) is 1 to 30 µM.

With `COc1ccc(Cl)cc1C(CC(=O)O)NC(=O)c1cc(O)n(-c2ccc(F)cc2)n1` (stereo not shown) [Example 344], the IC50 was 0.1 to 1 µM.

For `COc1ccc(C(CC(=O)O)NC(=O)c2cc(O)n(-c3ccc(F)cc3)n2)c(Cl)c1` (stereo not shown) [Example 345], the IC50 fell in the range of 0.1 to 1 µM.

`O=C(O)C[C@H](NC(=O)c1cc(O)n(-c2ccc(F)cc2)n1)c1ccc(F)cc1` [Example 346]: the IC50 fell in the range of 1 to 30 µM.

`O=C(O)C[C@H](NC(=O)c1cc(O)n(-c2ccc(F)cc2)n1)c1cccc(Cl)c1Cl` [Example 347]: the IC50 was in the range of 0.1 to 1 µM.

With `COc1cccc([C@H](CC(=O)O)NC(=O)c2cc(O)n(-c3ccc(F)cc3)n2)c1` [Example 348], the concentration for half-maximal inhibition (IC50) was in the range of 1 to 30 µM.

With `O=C(O)C[C@H](NC(=O)c1cc(O)n(-c2ccc(F)cc2)n1)c1cccc(F)c1` [Example 349], the half-inhibitory concentration (IC50) lay within 0.1 to 1 µM.

With `O=C(O)C[C@H](NC(=O)c1cc(O)n(-c2ccc(F)cc2)n1)c1cccc(Cl)c1` [Example 350], the IC50 lay in the range of 0.1 to 1 µM.

Take `O=C(O)C[C@H](NC(=O)c1cc(O)n(-c2ccc(F)cc2)n1)c1ccc(C(F)(F)F)cc1` [Example 351]: the IC50 is 1 to 30 µM.

Consider `O=C(O)CC(NC(=O)c1cc(O)n(-c2ccc(F)cc2)n1)c1cccc(Cl)c1Cl` (stereo not shown) [Example 352], for which the IC50 was in the range of 0.1 to 1 µM.

Turning to `COc1cccc([C@H](CC(=O)O)NC(=O)c2cc(O)n(-c3ccc(F)cc3)n2)c1OC` [Example 353], the half-inhibitory concentration (IC50) fell in the range of 0.1 to 1 µM.

With `Cc1cccc([C@H](CC(=O)O)NC(=O)c2cc(O)n(-c3ccc(F)cc3)n2)c1` [Example 354], the IC50 is 0.1 to 1 µM.

`O=C(O)C[C@H](NC(=O)c1cc(O)n(-c2ccc(F)cc2)n1)c1cccc(C(F)(F)F)c1` [Example 355]: the IC50 was 0.1 to 1 µM.

Turning to `O=C(O)CC(NC(=O)c1cc(O)n(-c2ccc(F)cc2)n1)c1ccc(-c2cccc(F)c2)cc1` (stereo not shown) [Example 356], the IC50 fell in the range of 0.1 to 1 µM.
